Data as given in publication PMC11965660, “Isobavachalcone ameliorates Alzheimer disease pathology by autophagy-mediated clearance of amyloid beta and inhibition of NLRP3 inflammasome in primary astrocytes and 5x-FAD mice” (Frontiers in Pharmacology, 2025).

Assays:
[1] = test system: Aβ42; experiment: Aβ estimation in plasma by ELISA; type: in vivo, 5x-FAD mice; details: 25 and 50 mg/kg, vs untreated 5x-FAD control
Source text: Hemizygous 5x-FAD transgenic mice (B6.Cg-Tg(APPSwFlLon, PSEN1*M146L*L286V) 6799Vas/Mmjax; MMRRC Strain: 034848-JAX) on congenic C57BL/6J genetic background were used for experiments. The 5x-FAD mice were genotyped using APP-specific qPCR probes to detect the transgene as per the protocol of Jackson Laboratory. Six months old 5x-FAD mice were randomly divided into three groups (n = 5), based on their body weights, with three males and two females in each group. We used mixed-cohort of males and females for our study to exclude any gender biased effect of IBC. Also, AD symptoms are more pronounced in females than in males ([Aggarwal and Mielke, 2023]), making it possible that males and females respond differently to the drug and treatment. Considering this, it is important to show effect of IBC on both sexes. At this age, Aβ deposition and neuroinflammation has already progressed in these mice. We have used IBC as a curative drug rather than a preventive drug. Prior to the initiation of the study, all the animals were acclimatized for 1 week under standard laboratory conditions; animals were drug naive with no prior procedures performed. All testing were performed from 1 to 4 p.m. […]
After the end of the experiment, blood was collected from the retinal orbital plexus of mice in EDTA-coated vials. […] The levels of Aβ in the plasma were measured by using the protein-specific ELISA kit.

[2] = test system: LC3B and LAMP1; experiment: LC3B and LAMP1 co-localization by confocal microscopy; type: cell-based, C57BL/6J mice; details: primary astrocytes, 10 μM, 24 h
Protocol: (§1) Cells were seeded on coverslips in 6 well plates. After treatments, cells were fixed with 4% paraformaldehyde (PFA) for 15 min and permeabilized with 0.1% Triton-X 100 for 7 min. Blocking was done for 30 min with 2% BSA, followed by overnight incubation with primary antibody. Alexa fluor conjugated secondary antibody incubation was given to cells for 1 h for labeling. The nucleus was stained with 4,6-diamidino-2-phenylindole (DAPI) (1 μg/mL) for 10 min. Following staining, the coverslips were mounted on slides using mounting media (PBS and glycerol at a ratio of 1:9). Cells were washed thrice with PBS after each incubation. The images were acquired in a CQ1 high-throughput imaging system.

[3] = test system: NLRP3 inflammasome; experiment: NLRP3 inflammasome activation in primary astrocytes: immunoblotting, ASC oligomers and specks, co-localization; type: cell-based, C57BL/6J mice; details: for co-localization of CASP1 and NLRP3: 10 μM
Protocol: Primary astrocytes were first treated with microglia conditional media to induce astrogliosis ([Liddelow et al., 2017]). For this, the microglia (N9) cell line, provided by Dr. Anirban Basu (National Brain Research Centre, Gurgaon, India) was cultured in RPMI-1640. N9 cells (Passage 28-35) were seeded in 24 well plate at density 0.05 × 10^6 per well. The cells were treated with 1 μg/ml LPS, and supernatant was collected after 24 h. Seeded astrocytes were then treated with the LPS stimulated N9 cells supernatant for 24 h. Thereafter, the treatment for NLRP3 inflammasome activation was given, including priming with fresh 1 μg/ml LPS for 4 h, followed by washing and IBC or MCC950 (100 nM) treatment for 1 h in incomplete media (media without fetal bovine serum). ATP at 5 mM concentration was used as secondary signal for 30 min.
Following treatment with 5 and 10 μM IBC (1 h) and NLRP3 inflammasome activation in primary astrocytes, cells were lysed with ice-cold buffer (KCl [150 mM], HEPES-KOH [20 mM, pH 7.5], NP-40 [1%], sodium orthovanadate [1 mM], PMSF [0.1 mM] and protease inhibitor cocktail [1%]). Cells were centrifuged at 300 g for 10 min. The supernatant was collected for western blot analysis of total ASC protein. The pellet was washed with cold PBS and resuspended in 500 µL cold PBS. For the crosslinking of ASC, 2 mM of […] was added to the resuspended pellet and incubated at 37°C for 30 min in water bath. After centrifugation, the supernatant was discarded, and a 2X Laemmli buffer was added to the pellet. The samples were heated at 95°C for 5 min and subjected to western blotting for analyzing ASC oligomers.
Levels of cleaved IL-1β and caspase-1 were analyzed in cellular supernatant. The supernatant collected after the end of the experiment was incubated with StartaClean resin for 1 h at 4°C. Samples were kept on rotation so that the resin could bind properly with proteins. The concentrated resin pellet was obtained by centrifuging samples at 300 g for 10 min 2X Laemmli buffer was added to the resin pellet, heated at 95°C for 10 min, and subjected to western blotting.
Cellular lysates were prepared using radio immuno precipitation assay (RIPA) buffer for protein analysis. Briefly, the cell pellet was dissolved in RIPA buffer containing sodium fluoride, sodium orthovanadate, phenyl methyl sulfonyl fluoride (PMSF) and 1% protease inhibitor cocktail for 1 h with vertexing sample every 15 min. The supernatant was collected after high-speed centrifugation of samples for 20 min at 4°C. For analysis of proteins in mice hippocampi, the hippocampi isolated from mice brains was immediately washed with saline and stored in liquid nitrogen. For lysates preparation, tissue was homogenized in RIPA buffer substituted with sodium fluoride, sodium orthovanadate, phenyl methyl sulfonyl fluoride and 1% protease inhibitor cocktail. Total protein was measured using Bradford assay. Proteins were separated using SDS-PAGE and then transferred from gel to PVDF membrane. The protein of interest was labeled with a specific primary antibody overnight at 4°C. Further, the blot was incubated with corresponding HRP-conjugated secondary antibody for 1 h at room temperature. The band were visualized in the Genaxy Chemi Doc imaging system (Make: Syngene, Maryland, USA; Model: G: BOX, XT-4). Densitometry analysis of all the immunoblots was performed by using ImageJ software. Band density of proteins was normalized with β-actin. The phosphorylated proteins were normalized with their total forms.
as §1, with “Following staining, the coverslips were mounted on slides using mounting media (PBS and glycerol at a ratio of 1:9). Cells were washed thrice with PBS after each incubation. The images were acquired in a CQ1 high-throughput imaging system.” left out

[4] = LPS + ATP, 5 and 10 μM, western blot
[5] = in the presence of LPS and ATP, 5 and 10 μM

With `CC(C)=CCc1c(O)ccc(C(=O)/C=C/c2ccc(O)cc2)c1O` [IBC, isobavachalcone] the “Aβ42 in blood plasma” value [1] was “reduced levels”, the “co-localization of LC3B and LAMP1” value [2] was “proximity of LC3B and LAMP1” and the ASC speck formation ([3]; 5 μM and 10 µM, vs cells induced with ATP) was “highly significant (p < 0.0001) reduction”. The “co-localization of CASP1 and NLRP3” value ([3]; in the presence of siAMPK) was “did not affect the co-localization”, the “co-localization of CASP1 and NLRP3” value ([3]; vs LPS + ATP) was “reduced the co-localization” and the “ASC monomer, dimer, and oligomer formation” value ([3]; LPS + ATP, 5 and 10 μM) was “inhibited”. The “cleaved CASP1 in supernatant” value [3, 4] was “reduced release”, the “cleaved IL-1β in supernatant” value [3, 4] was “reduced release” and the NLRP3 protein expression ([3]; LPS + ATP, western blot) was “no change”. For the same molecule, the “AMPK phosphorylation (Thr 172)” value [3, 5] was “significantly enhanced phosphorylation”, the LC3B-II level [3, 5] was “marked increase” and the SQSTM1 level [3, 5] was “significant decline”. For the same molecule, the “inhibitory effect on IL-1b and CASP1 under AMPK knockdown” value ([3]; siAMPK, LPS + ATP) was “completely reversed”.
